Results published in PubChem BioAssay AID2060347 (Molecular Pharmacology Branch, DTP, NCI, 2025).
Values joined by “and” are separate entries in the source; they are usually repeats but may differ in a detail not shown here. Identical values can stand only once.

System: 817829-284-R-J1-PDC spheroids with HUVEC/MSC, viability
Assay: Anticancer human tumor 817829-284-R-J1-PDC patient-derived colon adenocarcinoma cell line growth inhibition [TAK]
Conditions: for viability, T/C: stronger effect = lower value
Excerpt: Combinatorial screen of targeted agents with TAK-243 and ipatasertib in multi-cell type tumor spheroids
A high-throughput screen of multi-cell type tumor spheroids was designed to identify active combinations of targeted small molecules and TAK-243 or ipatasertib. Complex spheroids include a stromal component modeled by human endothelial cells (HUVEC) and fibroblasts modeled by human mesenchymal stem cells (MSCs). The concentration ranges selected for each drug and investigational agent were based upon clinically achievable concentrations if the clinical Cmax of the agent was known.
Compounds. The drugs and investigational agents: TAK-243 (785004), ipatasertib (767898), everolimus (733504), selumetinib (741078), bortezomib (756655), trametinib (758246), ixazomib (758254), vemurafenib (761431), dabrafenib (764134), sapanisertib (764658), alpelisib (765974), and copanlisib (816437), were obtained from the National Cancer Institute (NCI) Developmental Therapeutics Program Chemical Repository. The FDA-approved anticancer drug set is available from the NCI Developmental Therapeutics Program. […] The stock solutions were prepared in dimethyl sulfoxide (DMSO, Sigma-Aldrich, St. Louis, MO, cat. D2650) at 800-fold the tested concentration and stored at -70 degrees C prior to their use. All drugs and investigational agents were tested over a range starting from a high concentration at or near the clinical Cmax and decreasing in half-log increments. If the clinical Cmax for an agent had not been determined, the highest concentration tested was 10 microM.
NCI60 Cell Culture. NCI60 cell lines were obtained from the NCI Developmental Therapeutics Program Tumor Repository. For each lot of cells, the Repository performed Applied Biosystems AmpFLSTR Identifiler testing with PCR amplification to confirm consistency with the published Identifier STR profile for each cell line. Cells were kept in continuous culture for no more than 20 passages. The optimal seeding densities for each of the cell lines at each time point assessed were determined prior to performing the concentration response studies. Briefly, the NCI60 human tumor lines were grown as monolayers in RPMI 1640 medium supplemented with 10% FBS and 2 mmol/L L-glutamine.
An additional 2 lines were from the NCI60 cell line panel including melanomas, MALME-3M and SK-MEL-2. Pooled donor human umbilical vein endothelial cells (HUVEC, Lonza, cat. CC-2519) and human mesenchymal stem cells (hMSC, Lonza, cat. PT-2501) were purchased from Lonza (Walkersville, MD).
PDMR cell lines were grown in complete medium (DC medium): Dulbecco's modified Eagle's medium (DMEM)/F12 supplemented with 5% fetal bovine serum (FBS), 2 mM L-glutamine, 100 U/mL penicillin and 100 µg/ml streptomycin, 0.4 µg/ml hydrocortisone, 10 ng/ml epidermal growth factor (EGF) recombinant human protein, 24 µg/mL adenine, and 0.1 mg/mL primocin. During culture from frozen stock vials, PDMR cells were cultured in the same medium containing 10 µM Y-27632 (see Table 3). The PDCs were cultured in complete DMEM/F12 media without 10 microM Y-27632 dihydrochloride for at least two passages prior to the screen. The pooled donor HUVEC and hMSC were cultured in endothelial cell growth medium 2 (PromoCell, Heidelberg, Germany, cat. C-22011) and mesenchymal stem cell growth medium 2 (PromoCell, cat. C-28009), respectively. For all experiments, HUVEC and hMSC were used at passages </=5.
For the pre-screen, cell seeding densities were determined from a titration spanning the range from 5,000 to 313 cells per well. The mct-spheroids including 60% malignant cells, 25% HUVEC and 15% MSC dispensed as a mixture into U-bottom Ultra-Low Attachment 384-well plates (Corning, NY)
High-throughput Drug Combination Screening.
Prior to their inoculation into 384-well plates, malignant cells, HUVEC, and hMSC were removed from T flasks using TrypLE express (Thermo Fisher Scientific, cat. 12605036) and harvested by centrifugation for 5 min at 233 x g. […]

[1] = curve of first compound, second compound 0.3 µM
[2] = curve of first compound, second compound 0.949 µM
[3] = curve of first compound, second compound 3 µM
[4] = curve of first compound, second compound 9.49 µM
[5] = curve of first compound, second compound 30 µM
[6] = second compound 0.3 µM, first compound 0.0316 µM
[7] = second compound 0.3 µM, first compound 0.1 µM
[8] = second compound 0.949 µM, first compound 0.0316 µM
[9] = second compound 0.949 µM, first compound 0.1 µM
[10] = second compound 3 µM, first compound 0.0316 µM
[11] = second compound 3 µM, first compound 0.1 µM
[12] = second compound 9.49 µM, first compound 0.0316 µM
[13] = second compound 9.49 µM, first compound 0.1 µM
[14] = second compound 30 µM, first compound 0.0316 µM
[15] = second compound 30 µM, first compound 0.1 µM

Structure (SMILES): CCCS(=O)(=O)Nc1ccc(F)c(C(=O)c2c[nH]c3ncc(-c4ccc(Cl)cc4)cc23)c1F
- viability, T/C (compound 0.316 µM): 89.1% and 93%
- viability, T/C (compound 1 µM): 81.3% and 89.1%
- viability, T/C (compound 3.16 µM): 62.7% and 34.4%
- viability, T/C (compound 10 µM): 12.4% and 10.9%
- viability, T/C (compound 31.6 µM): 56.8% and 26.3%
- viability, T/C (compound 100 µM): 59.9% and 43.6%
- IC50 (curve of compound): 6650 nM and 2270 nM

Structure (SMILES): CC(C)CC(NC(=O)CNC(=O)c1cc(Cl)ccc1Cl)B1OC(=O)CC(CC(=O)O)(C(=O)O)O1 (stereo not given) + CC(C)NCC(C(=O)N1CCN(c2ncnc3c2C(C)CC3O)CC1)c1ccc(Cl)cc1
- IC50 [1]: 15.9 nM
- IC50 [2]: < 0.316 nM
- IC50 [3]: < 0.316 nM
- IC50 [4]: < 0.316 nM
- IC50 [5]: < 0.316 nM
- viability, T/C (second compound 0.3 µM, first compound 0.000316 µM): 103%
- viability, T/C (second compound 0.3 µM, first compound 0.001 µM): 93.4%
- viability, T/C (second compound 0.3 µM, first compound 0.00316 µM): 82.4%
- viability, T/C (second compound 0.3 µM, first compound 0.01 µM): 81%
- viability, T/C [6]: 4.01%
- viability, T/C [7]: 0.25%
- viability, T/C (second compound 0.949 µM, first compound 0.000316 µM): 33.5%
- viability, T/C (second compound 0.949 µM, first compound 0.001 µM): 22.1%
- viability, T/C (second compound 0.949 µM, first compound 0.00316 µM): 30.2%
- viability, T/C (second compound 0.949 µM, first compound 0.01 µM): 25%
- viability, T/C [8]: 0.36%
- viability, T/C [9]: 0.13%
- viability, T/C (second compound 3 µM, first compound 0.000316 µM): 10.5%
- viability, T/C (second compound 3 µM, first compound 0.001 µM): 10%
- viability, T/C (second compound 3 µM, first compound 0.00316 µM): 10.2%
- viability, T/C (second compound 3 µM, first compound 0.01 µM): 10.8%
- viability, T/C [10]: 0.42%
- viability, T/C [11]: 0.12%
- viability, T/C (second compound 9.49 µM, first compound 0.000316 µM): 5.98%
- viability, T/C (second compound 9.49 µM, first compound 0.001 µM): 6.67%
- viability, T/C (second compound 9.49 µM, first compound 0.00316 µM): 6.96%
- viability, T/C (second compound 9.49 µM, first compound 0.01 µM): 6.39%
- viability, T/C [12]: 0.53%
- viability, T/C [13]: 0.12%
- viability, T/C (second compound 30 µM, first compound 0.000316 µM): 5.15%
- viability, T/C (second compound 30 µM, first compound 0.001 µM): 4.38%
- viability, T/C (second compound 30 µM, first compound 0.00316 µM): 4.75%
- viability, T/C (second compound 30 µM, first compound 0.01 µM): 4.63%
- viability, T/C [14]: 0.23%
- viability, T/C [15]: 0.32%

Structure (SMILES): Cc1nc(NC(=O)N2CCCC2C(N)=O)sc1-c1ccnc(C(C)(C)C(F)(F)F)c1 (stereo not given) + CC(C)NCC(C(=O)N1CCN(c2ncnc3c2C(C)CC3O)CC1)c1ccc(Cl)cc1
- IC50 [1]: 1190 nM
- IC50 [2]: 76.2 nM
- IC50 [3]: < 31.6 nM
- IC50 [4]: < 31.6 nM
- IC50 [5]: < 31.6 nM
- viability, T/C [6]: 87.9%
- viability, T/C [7]: 80.6%
- viability, T/C (second compound 0.3 µM, first compound 0.316 µM): 74.8%
- viability, T/C (second compound 0.3 µM, first compound 1 µM): 51.9%
- viability, T/C (second compound 0.3 µM, first compound 3.16 µM): 37%
- viability, T/C (second compound 0.3 µM, first compound 10 µM): 33.1%
- viability, T/C [8]: 61.8%
- viability, T/C [9]: 48.5%
- viability, T/C (second compound 0.949 µM, first compound 0.316 µM): 28.4%
- viability, T/C (second compound 0.949 µM, first compound 1 µM): 26.7%
- viability, T/C (second compound 0.949 µM, first compound 3.16 µM): 14.4%
- viability, T/C (second compound 0.949 µM, first compound 10 µM): 8.03%
- viability, T/C [10]: 18.1%
- viability, T/C [11]: 17%
- viability, T/C (second compound 3 µM, first compound 0.316 µM): 13.2%
- viability, T/C (second compound 3 µM, first compound 1 µM): 6.56%
- viability, T/C (second compound 3 µM, first compound 3.16 µM): 6.29%
- viability, T/C (second compound 3 µM, first compound 10 µM): 5.54%
- viability, T/C [12]: 9.9%
- viability, T/C [13]: 9.69%
- viability, T/C (second compound 9.49 µM, first compound 0.316 µM): 8.57%
- viability, T/C (second compound 9.49 µM, first compound 1 µM): 5.76%
- viability, T/C (second compound 9.49 µM, first compound 3.16 µM): 3.41%
- viability, T/C (second compound 9.49 µM, first compound 10 µM): 2.85%
- viability, T/C [14]: 6.53%
- viability, T/C [15]: 6.06%
- viability, T/C (second compound 30 µM, first compound 0.316 µM): 4.67%
- viability, T/C (second compound 30 µM, first compound 1 µM): 3.84%
- viability, T/C (second compound 30 µM, first compound 3.16 µM): 2.64%
- viability, T/C (second compound 30 µM, first compound 10 µM): 1.58%

Structure (SMILES): Cn1cnc2c(F)c(Nc3ccc(Br)cc3Cl)c(C(=O)NOCCO)cc21
- viability, T/C (compound 0.00949 µM): 89.3% and 94.4%
- viability, T/C (compound 0.03 µM): 86.4% and 83.3%
- viability, T/C (compound 0.0949 µM): 79% and 79.5%
- viability, T/C (compound 0.3 µM): 72% and 66.6%
- viability, T/C (compound 0.949 µM): 55.7% and 53.5%
- viability, T/C (compound 3 µM): 25.6% and 20.5%
- IC50 (curve of compound): 1150 nM and 953 nM

Structure (SMILES): CC(C)NCC(C(=O)N1CCN(c2ncnc3c2C(C)CC3O)CC1)c1ccc(Cl)cc1 (stereo not given)
- viability, T/C (compound 3 µM): 15.9% [middle of 10 runs]
- viability, T/C (compound 9.49 µM): 11.2% [middle of 10 runs]
- viability, T/C (compound 30 µM): 6.54% [middle of 10 runs]
- IC50 (compound alone, run of 02/28/2020): 1.55 µM [middle of 6 runs]
- IC50 (compound alone, run of 03/19/2020): 665 nM [middle of 4 runs]

Structure (SMILES): CC(C)CC(NC(=O)C(Cc1ccccc1)NC(=O)c1cnccn1)B(O)O (stereo not given)
- viability, T/C (compound 31.6 pM): 102% and 95.1%
- viability, T/C (compound 0.0001 µM): 99.1% and 89.3%
- viability, T/C (compound 0.000316 µM): 98.6% and 94.7%
- viability, T/C (compound 0.001 µM): 89.5% and 98.6%
- viability, T/C (compound 0.00316 µM): 103% and 99.9%
- IC50 (curve of compound): 5.61 nM and > 10 nM
